By inhibition is commonly meant the share of the control response that was lost under treatment.

Inhibition data for two compounds are collected here from patent US7563787B2, “Substituted pyrazole compounds” (Miikana Therapeutics, Inc., priority 2005, dated 2009).

The target of one experiment is T1, recombinant Aurora A (Homo sapiens, UniProt O14965).
T1 construct: purchased Upstate, Lake Placid, N.Y
T1 sequence (O14965 1-403): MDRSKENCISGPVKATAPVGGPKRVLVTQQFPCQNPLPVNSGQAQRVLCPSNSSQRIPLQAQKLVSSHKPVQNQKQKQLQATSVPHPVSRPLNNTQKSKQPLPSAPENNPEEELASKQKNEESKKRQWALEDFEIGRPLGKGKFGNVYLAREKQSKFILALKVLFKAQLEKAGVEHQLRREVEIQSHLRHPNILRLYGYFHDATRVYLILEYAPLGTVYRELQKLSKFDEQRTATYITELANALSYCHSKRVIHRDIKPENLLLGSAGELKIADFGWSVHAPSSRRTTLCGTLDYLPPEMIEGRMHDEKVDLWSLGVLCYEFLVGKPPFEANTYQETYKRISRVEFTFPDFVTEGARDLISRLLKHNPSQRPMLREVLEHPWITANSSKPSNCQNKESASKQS
Nature of the experiment: Aurora A (Aurora 2) Inhibition Assay (Z'-Lyte). The following applies: 100 μM compound; ATP 10 μM; 1 h. In kind it is biochemical.

The target of another experiment is T2, FLT3 (Homo sapiens, UniProt P36888).
T2 construct: full-length enzymes or catalytically active fragments; purchased Invitrogen
Nature of the experiment: Kinase Selectivity Assay. In kind it is biochemical. The following applies: read-out: Percent Inhibition at 1 μM. As for the experimental part: (§1) Compounds were assayed for inhibitory activity against a panel of different kinase enzymes at a concentration of 1 μM. Where appropriate, full-length enzymes or catalytically active fragments, with N-terminal or C-terminal His- or GST-tags, were used (Invitrogen, Carlsbad, Calif.). Test compounds were initially diluted to 100× test concentration in 100% DMSO. This 100× concentration was then diluted to a 4× working concentration in Kinase Buffer (50 mM HEPES pH 7.5, 0.01% Brij-35, 10 mM MgCl2, 1 mM EGTA) and 2.5 μL was then added to a low volume NBS, 384-well plate (Corning, Corning, N.Y.). Five μL of a 2× peptide/kinase mixture (Invitrogen, Carlsbad, Calif.), as appropriate (listed in Table 3), was then added and the reaction was then initiated by addition of 2.5 μL of a 4× working concentration of ATP in Kinase Buffer.

A further experiment concerns the target T3, DAPK3 (ZIPK) (Homo sapiens, UniProt O43293).
T3 construct: purchased Invitrogen, Carlsbad, Calif
Nature of the experiment: Kinase Selectivity Assay. In kind it is biochemical. The settings on record: read-out: Percent Inhibition at 1 μM. The protocol: as §1

In another experiment the target is T4, AURKB (Aurora B) (Homo sapiens, UniProt Q96GD4).
T4 construct: purchased Invitrogen, Carlsbad, Calif
Nature of the experiment: Kinase Selectivity Assay. The settings on record: read-out: Percent Inhibition at 1 μM. The class given is biochemical. The protocol:
as §1

For a further experiment, the target named is T5, FLT3 D835Y (Homo sapiens, UniProt P36888, D835Y).
T5 construct: full-length enzymes or catalytically active fragments; purchased Invitrogen
Nature of the experiment: Kinase Selectivity Assay. In kind it is biochemical. The following applies: read-out: Percent Inhibition at 1 μM. The protocol:
as §1

Another experiment has as its target T6, IRAK4 (Homo sapiens, UniProt Q9NWZ3).
T6 construct: full-length enzymes or catalytically active fragments; purchased Invitrogen
Nature of the experiment: Kinase Selectivity Assay. The class given is biochemical. The settings on record: read-out: Percent Inhibition at 1 μM. As for the experimental part: as §1

The next experiment has as its target T7, KIT T670I (Homo sapiens, UniProt P10721, T670I).
T7 construct: full-length enzymes or catalytically active fragments; purchased Invitrogen
Nature of the experiment: Kinase Selectivity Assay. In kind it is biochemical. The settings on record: read-out: Percent Inhibition at 1 μM. As for the experimental part:
as §1

In another experiment the target is T8, FLT4 (VEGFR3) (Homo sapiens, UniProt P35916).
T8 construct: full-length enzymes or catalytically active fragments; purchased Invitrogen
Nature of the experiment: Kinase Selectivity Assay. The following applies: read-out: Percent Inhibition at 1 μM. In kind it is biochemical. The protocol:
as §1

The next experiment deals with HCT-116 cell growth. Nature of the experiment: Whole Cell Cytotoxicity Assay: Sulforhodamine B. The class given is cell-based, Human. The following applies: Homo sapiens, HCT-116; 100 μM compound; 96 hours; SRB staining. (In SRB staining, fixed cells bind dye roughly in proportion to their protein.)
In a further experiment the target is SRC (Homo sapiens, UniProt P12931). Nature of the experiment: Kinase Selectivity Assay. In kind it is biochemical. On the set-up: full-length enzymes or catalytically active fragments; purchased Invitrogen. The settings on record: read-out: Percent Inhibition at 1 μM. The protocol: as §1
Sequence of SRC (P12931 whole entry, the tested form may be a part): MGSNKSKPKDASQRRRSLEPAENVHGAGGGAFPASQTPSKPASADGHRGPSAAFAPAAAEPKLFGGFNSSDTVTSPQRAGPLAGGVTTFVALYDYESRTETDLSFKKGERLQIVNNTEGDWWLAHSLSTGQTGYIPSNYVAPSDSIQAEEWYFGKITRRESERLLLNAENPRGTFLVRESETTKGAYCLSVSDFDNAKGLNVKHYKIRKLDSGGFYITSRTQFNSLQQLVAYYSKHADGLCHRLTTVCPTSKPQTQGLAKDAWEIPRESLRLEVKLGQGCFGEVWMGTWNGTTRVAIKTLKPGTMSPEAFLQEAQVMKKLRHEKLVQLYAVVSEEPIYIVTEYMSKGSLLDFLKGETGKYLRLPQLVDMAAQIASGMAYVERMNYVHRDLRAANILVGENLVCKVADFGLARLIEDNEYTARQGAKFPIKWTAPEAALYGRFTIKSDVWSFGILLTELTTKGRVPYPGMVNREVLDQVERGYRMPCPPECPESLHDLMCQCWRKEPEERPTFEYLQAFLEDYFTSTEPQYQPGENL

T4 sequence (Q96GD4 whole entry): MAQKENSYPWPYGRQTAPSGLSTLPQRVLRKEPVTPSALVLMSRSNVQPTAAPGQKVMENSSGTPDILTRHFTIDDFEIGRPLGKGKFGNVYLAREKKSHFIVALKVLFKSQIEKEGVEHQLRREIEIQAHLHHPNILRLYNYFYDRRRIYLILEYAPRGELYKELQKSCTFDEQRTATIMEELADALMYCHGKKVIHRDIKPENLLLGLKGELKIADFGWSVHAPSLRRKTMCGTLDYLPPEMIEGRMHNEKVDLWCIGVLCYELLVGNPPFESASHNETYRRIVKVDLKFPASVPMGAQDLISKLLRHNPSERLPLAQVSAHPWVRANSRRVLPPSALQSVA
T6 sequence (Q9NWZ3 whole entry, the tested form may be a part): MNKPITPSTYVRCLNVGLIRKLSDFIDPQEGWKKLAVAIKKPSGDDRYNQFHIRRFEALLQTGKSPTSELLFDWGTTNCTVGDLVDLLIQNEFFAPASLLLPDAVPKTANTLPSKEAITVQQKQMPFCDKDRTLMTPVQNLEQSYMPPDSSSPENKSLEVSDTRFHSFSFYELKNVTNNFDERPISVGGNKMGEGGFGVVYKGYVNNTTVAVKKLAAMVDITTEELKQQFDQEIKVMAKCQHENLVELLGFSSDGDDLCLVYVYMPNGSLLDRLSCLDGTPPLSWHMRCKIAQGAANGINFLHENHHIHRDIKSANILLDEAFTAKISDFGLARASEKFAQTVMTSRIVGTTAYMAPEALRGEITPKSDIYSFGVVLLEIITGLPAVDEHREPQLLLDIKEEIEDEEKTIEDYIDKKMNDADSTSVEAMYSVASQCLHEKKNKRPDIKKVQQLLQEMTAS
T8 sequence (P35916 25-1363): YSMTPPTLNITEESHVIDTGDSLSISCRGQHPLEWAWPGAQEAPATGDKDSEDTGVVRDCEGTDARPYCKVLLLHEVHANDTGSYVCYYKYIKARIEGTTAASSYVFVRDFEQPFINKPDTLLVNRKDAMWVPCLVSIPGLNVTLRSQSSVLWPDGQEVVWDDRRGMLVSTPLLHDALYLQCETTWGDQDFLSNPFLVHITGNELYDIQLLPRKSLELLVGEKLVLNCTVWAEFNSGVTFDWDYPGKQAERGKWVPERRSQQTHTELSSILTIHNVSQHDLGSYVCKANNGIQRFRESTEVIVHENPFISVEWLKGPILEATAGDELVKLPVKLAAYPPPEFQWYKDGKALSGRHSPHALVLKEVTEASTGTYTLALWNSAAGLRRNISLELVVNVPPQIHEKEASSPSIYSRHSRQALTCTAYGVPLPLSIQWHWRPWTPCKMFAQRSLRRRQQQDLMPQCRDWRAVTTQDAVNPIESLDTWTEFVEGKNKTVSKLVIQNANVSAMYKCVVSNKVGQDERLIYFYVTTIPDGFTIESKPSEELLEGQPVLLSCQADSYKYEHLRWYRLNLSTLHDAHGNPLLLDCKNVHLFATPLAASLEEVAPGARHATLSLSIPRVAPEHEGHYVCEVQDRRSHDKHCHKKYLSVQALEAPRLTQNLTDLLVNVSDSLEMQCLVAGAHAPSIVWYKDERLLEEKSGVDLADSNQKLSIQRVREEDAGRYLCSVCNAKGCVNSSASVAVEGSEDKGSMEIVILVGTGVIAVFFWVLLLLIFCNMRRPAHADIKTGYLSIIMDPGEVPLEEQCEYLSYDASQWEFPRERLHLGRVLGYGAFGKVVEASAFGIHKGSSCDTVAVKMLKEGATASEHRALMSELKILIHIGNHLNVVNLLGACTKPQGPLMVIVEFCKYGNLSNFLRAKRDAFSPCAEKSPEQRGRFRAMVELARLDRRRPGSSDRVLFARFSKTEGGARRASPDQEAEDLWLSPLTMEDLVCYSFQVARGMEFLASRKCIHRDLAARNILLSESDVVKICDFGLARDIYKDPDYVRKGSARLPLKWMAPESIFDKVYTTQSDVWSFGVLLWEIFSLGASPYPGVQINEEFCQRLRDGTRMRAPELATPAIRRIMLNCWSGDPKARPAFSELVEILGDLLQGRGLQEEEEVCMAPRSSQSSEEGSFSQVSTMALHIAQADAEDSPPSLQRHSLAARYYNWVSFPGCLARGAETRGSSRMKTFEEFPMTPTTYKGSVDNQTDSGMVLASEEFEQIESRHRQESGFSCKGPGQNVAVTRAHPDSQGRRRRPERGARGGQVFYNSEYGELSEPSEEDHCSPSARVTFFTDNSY
T7 sequence (P10721 26-976 T670I): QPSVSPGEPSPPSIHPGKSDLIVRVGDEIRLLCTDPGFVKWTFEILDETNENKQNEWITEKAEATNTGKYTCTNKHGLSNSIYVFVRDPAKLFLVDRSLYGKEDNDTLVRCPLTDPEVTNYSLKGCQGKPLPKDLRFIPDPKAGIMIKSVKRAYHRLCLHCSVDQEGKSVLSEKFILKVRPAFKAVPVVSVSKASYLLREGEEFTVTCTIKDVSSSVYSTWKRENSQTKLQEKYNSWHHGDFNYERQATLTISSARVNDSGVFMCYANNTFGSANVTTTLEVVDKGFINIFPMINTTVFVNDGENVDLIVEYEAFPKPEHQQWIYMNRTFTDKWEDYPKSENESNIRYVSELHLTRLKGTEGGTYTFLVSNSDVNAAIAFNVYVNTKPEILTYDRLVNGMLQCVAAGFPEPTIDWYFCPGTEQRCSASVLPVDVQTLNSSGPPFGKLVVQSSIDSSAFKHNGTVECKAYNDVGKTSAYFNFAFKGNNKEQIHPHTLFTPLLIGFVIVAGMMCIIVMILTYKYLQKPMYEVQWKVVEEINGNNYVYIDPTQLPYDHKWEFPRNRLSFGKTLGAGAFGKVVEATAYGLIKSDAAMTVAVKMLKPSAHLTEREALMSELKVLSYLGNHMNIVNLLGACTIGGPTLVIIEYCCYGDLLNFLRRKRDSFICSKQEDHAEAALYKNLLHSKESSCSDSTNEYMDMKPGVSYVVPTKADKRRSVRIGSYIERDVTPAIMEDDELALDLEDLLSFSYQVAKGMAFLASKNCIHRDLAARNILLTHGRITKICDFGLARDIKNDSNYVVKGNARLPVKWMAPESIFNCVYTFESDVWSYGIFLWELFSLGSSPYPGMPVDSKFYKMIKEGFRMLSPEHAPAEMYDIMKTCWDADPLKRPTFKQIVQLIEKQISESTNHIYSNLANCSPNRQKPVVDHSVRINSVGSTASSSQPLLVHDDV
T3 sequence (O43293 whole entry): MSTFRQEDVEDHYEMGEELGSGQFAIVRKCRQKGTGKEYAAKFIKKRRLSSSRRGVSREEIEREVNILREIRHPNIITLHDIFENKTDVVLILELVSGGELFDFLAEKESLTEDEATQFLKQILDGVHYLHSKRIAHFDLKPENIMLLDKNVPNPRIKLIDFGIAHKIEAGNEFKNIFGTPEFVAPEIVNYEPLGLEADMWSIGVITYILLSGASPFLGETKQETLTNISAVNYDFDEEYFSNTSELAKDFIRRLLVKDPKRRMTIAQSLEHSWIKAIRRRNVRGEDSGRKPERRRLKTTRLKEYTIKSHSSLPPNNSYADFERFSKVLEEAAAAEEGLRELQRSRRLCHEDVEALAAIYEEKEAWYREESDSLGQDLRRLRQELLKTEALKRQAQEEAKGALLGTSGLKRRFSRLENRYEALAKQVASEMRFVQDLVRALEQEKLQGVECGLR

Regarding `Cc1cc(Nc2nc(/C=C/c3ccccc3)nc(N3CCN(C)CC3)c2N)[nH]n1` [Example 10, 6-(4-methylpiperazin-1-yl)-N-(3-methyl-1H-pyrazol-5-yl)-2-[(E)-2-phenylvinyl]pyrimidin-4,5-diamine], the figures for the inhibition at 100 µM on recombinant Aurora A and in the experiment with HCT-116 cell growth were 100% and 99%, respectively. Further, the inhibition at 1 µM came to 93% on FLT3; 93% at DAPK3 (ZIPK); 37% at AURKB (Aurora B); 80% at FLT3 D835Y; 14% at IRAK4; 44% at KIT T670I. The inhibition at 1 µM was determined as 87% on FLT4 (VEGFR3) and 85% on SRC.
For the compound `Cc1cc(Nc2cc(N3CCN(C)CC3)nc(/C=C/c3ccccc3)n2)n[nH]1` [Example 31, 6-(4-methylpiperazin-1-yl)-N-(3-methyl-1H-pyrazol-5-yl)-2-[(E)-2-phenylvinyl]pyrimidin-4-amine], the values for the inhibition at 100 µM at recombinant Aurora A and in the experiment on HCT-116 cell growth were 100% and 99%, respectively. Besides, the inhibition at 1 µM at FLT3 worked out at 98%; on DAPK3 (ZIPK) it was 68%; at AURKB (Aurora B), 75%; on FLT3 D835Y, 98%; at IRAK4, 63%; at KIT T670I, 79%. Besides, the inhibition at 1 µM on FLT4 (VEGFR3) was 97%; on SRC, 96%.
